Legend:
GST-Bcl2 = GST-Bcl2 (Homo sapiens, UniProt P10415); details: specific binding; Rodi et al.; cited from earlier work
lambda phage = test: Immunity experiments: plaque formation on lambda phage infection of LE392 cells containing engineered repressors, with and without taxol; type: cell-based; details: 30° C., scored at 24 and 48 hours
Description: There are multiple ways to evaluate lambda repressor function. One such method exploits the central role of the repressor in controlling the decision of lambda phage to enter the lytic or the lysogenic phase. In the presence of a high concentration of functional cI in the bacterial cell, entering lambda phage are pushed into the lysogenic phase. In the absence of cI, bacteria are susceptible to infection by lambda phage: the lysed cells manifest as plaques on a bacterial lawn. The level of functional cI in a cell determines whether incoming phage will continue to enter the lytic cycle or choose the lysogenic cycle, when the phage is integrated into the host genome. Cells with functional cI can thus display immunity to phage superinfection. In addition it is also possible to conduct in vitro experiments, such as electrophoretic mobility shift assays where binding of purified protein to labeled oligonucleotide duplexes can be monitored.
The repressors were placed under the control of a constitutive promoter (tet promoter) in a pUNI (Invitrogen) donor vector. […]
Five sets of experiments have been done with each of the cI-bZIP, TBD-cI-bZIP, and TBD-ΔK-cI-bZIP constructs. […] Plaque phenotype was scored at 24 and 48 hours of incubation at 30° C. The number of plaques was counted for three experiments using 3-5 replicates for each set.

GST-Bcl2, sequence (P10415 whole entry): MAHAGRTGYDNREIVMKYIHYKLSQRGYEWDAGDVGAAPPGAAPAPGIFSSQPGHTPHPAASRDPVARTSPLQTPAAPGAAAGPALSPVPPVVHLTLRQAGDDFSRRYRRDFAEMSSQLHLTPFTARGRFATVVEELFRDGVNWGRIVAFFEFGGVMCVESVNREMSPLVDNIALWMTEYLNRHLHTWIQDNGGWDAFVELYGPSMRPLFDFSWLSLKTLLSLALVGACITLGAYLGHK

CC(=O)O[C@H]1C(=O)[C@@]2(C)[C@H]([C@H](OC(=O)c3ccccc3)[C@]3(O)C[C@H](OC(=O)[C@H](O)[C@@H](NC(=O)c4ccccc4)c4ccccc4)C(C)=C1C3(C)C)[C@]1(OC(C)=O)CO[C@@H]1C[C@@H]2O [taxol]
Kd of taxol binding to GST-Bcl2 (GST-Bcl2): nanomolar range

cI-bZIP: chimeric repressor: DNA binding domain and linker of lambda repressor (cI aa 1-132) fused to GCN4 leucine zipper; SEQ ID NO: 12
Change of plaque phenotype/size on addition of taxol (lambda phage; 100 uM taxol in culture and top agar): not changed
Plaque phenotype (size) on infection with lambda phage (lambda phage; LE392 cells containing the repressor, absence of taxol): miniscule plaques barely visible to the eye
